Measured values taken from patent US10905676B2, “Angiotensin II receptor antagonist for the prevention or treatment of systemic diseases in cats” (priority 2017, dated 2021).

What was measured:
[1] = Pharmacokinetics and absolute bioavailability after single oral or intravenous administration (Example 1)
Procedure: Four clinically healthy male and female domestic short hair cats (HsdCpb: CADS) with a body weight range of 2.6-4.2 kg were used in this study. The animals were randomly allocated to 2 groups, 2 animals per group.
Blood samples were drawn at 0 h (i.e. prior to treatment), 5 (after i. v. injection only), 15, 30 and 60 min as well as 2, 4, 8, 24, 72 and 96 h after each treatment. Clinical observations were also conducted at these time points. Plasma samples were sent to the analytical laboratory and analysed there using a validated method. The plasma levels measured in each animal were subjected to various pharmacokinetic calculations.

[2] = Safety after repeated oral administration over four weeks (Example 3); type: in vivo, cats
Procedure: 5-5. 1 kg were used in this study. The animals were allocated to 3 groups, 4 animals per group. […] The bottles with the test/control article looked identical with the exception of the animal no. in order to achieve blinding.
Blood samples for haematology and clinical chemistry were collected from the animals on days-1 (i.e. prior to the first treatment) and again on days 3, 7, 14, 28. Body weights were measured weekly and electrocardiography recording were made on days −1, 14, 21 and 28. A detailed physical examination including determination of rectal temperature and respiratory rate was carried out on days -1, 7, 14, 22 and 28. Systolic blood pressure (once daily) and heart rate (twice daily) were determined five days per week beginning prior to treatment until necropsy. The palatability of the administered article was assessed at various time points throughout treatment using a scoring system. On day 28 of the study, all animals were subjected to necropsy and stomach and kidneys were examined histopathologically. Relevant parameters were analysed using appropriate statistical procedures.

[3] = tested on: cats with moderate to severe systemic hypertension; experiment: European study of efficacy and safety in cats with systemic hypertension (Example 6); type: in vivo
Procedure: A European study was conducted to investigate the efficacy and safety of telmisartan oral solution for the treatment of systemic hypertension in cats. The first part or phase of the study (Day 1 to Day 28) occurred over a 28-day placebo-controlled, double-blinded treatment period (efficacy phase of the study). […] The target population for this study was domestic client-owned cats with moderate to severe systemic hypertension (cats having a mSBP of at least about 160 mmHg). […] A schematic overview of the study and the two phases of treatment is depicted in FIG. 3. There was a similar pre-treatment mSBP observed for both treatment groups (about 177-179 mmHg). Cats diagnosed with moderate to severe systemic hypertension in compliance with the “ACVIM consensus statement: Guidelines for the Identification, Evaluation, and Management of Systemic Hypertension in Dogs and Cats” (Brown et al. Guidelines for the identification, evaluation, and management of systemic hypertension in dogs and cats. ACVIM Consensus Statement. J Vet Intern Med 2007; 21: 542-558) at two separate Screening Visits within 14 days of the start of treatment were eligible for the study. The etiology of the hypertension was classified as due to chronic kidney disease (CKD), due to hyperthyroidism, due to both CKD and hyperthyroidism or as idiopathic hypertension. Cats were not allowed any substances which are known to affect blood pressure from 14 days prior to the start of treatment. […] A 5 mL dosing syringe (demarcated in 0.25 mL increments) was used for the first phase and a 2 mL dosing syringe (demarcated in 0.1 mL increments, to achieve down titrations as necessary) to perform dosing either directly into the mouth of the cat or with a very small amount of food. For the first (efficacy) phase of the study, all recruited cats were examined on two visits at Day 14 and Day 28. Examinations included measurement of mSBP, a complete physical examination, fundoscopic examination, an assessment of quality of life, and abbreviated clinical pathology (hematology and biochemistry). […] These cats were further examined, as above, for visits at Days 56, 84 and 120. During the second (extended) phase of the study, it was possible to decrease or down titrate the dose for certain cats as described herein.

[4] = cats, single i.v. 1 mg/kg, mean, 1 mg/kg
[5] = cats, single oral 1 mg/kg, mean, 1 mg/kg

With `CCCc1nc2c(C)cc(-c3nc4ccccc4n3C)cc2n1Cc1ccc(-c2ccccc2C(=O)O)cc1` [telmisartan, 4′-[2-n-propyl-4-methyl-6-(1-methylbenzimidazol-2-yl)-benzimidazol-1-ylmethyl]-biphenyl-2-carboxylic acid] the “time until which mean plasma concentrations increased” value ([1]; after oral administration) was 15 to 30 min, the “plasma concentrations at 24 h” value ([1]; both routes, orally and intravenously) was “No quantifiable plasma concentrations” and the clearance ([1]; both, domestic short hair (HsdCpb: CADS), plasma, iv, 1 mg/kg) was 45.5 mL/min/kg. The V ([1]; cats, single i.v. 1 mg/kg, mean) was 8.856 L/kg, the “AUC 0 → ∞” value [1, 4] was 384.751 ng·h/mL and the t½ [1, 4] was 2.252 h. For the same molecule, the V/f ([1]; cats, single oral 1 mg/kg, mean) was 20.453 L/kg, the “AUC 0 → ∞” value [1, 5] was 150.426 ng·h/mL and the t max [1, 5] was 0.438 h. The t½ [1, 5] was 2.169 h, the clinical signs ([1]; entire course of the study) was “No specific clinical signs” and the tolerability ([1]; in vivo, 1 mg/kg) was “well tolerated”. The “physical and ECG examinations” value ([2]; all time points) was “did not reveal treatment-related findings”, the “histopathology of stomach and kidneys” value ([2]; day 28) was “no histopathological findings considered to be associated with the treatment” and the necropsy findings ([2]; day 28) was “No animal showed any specific finding”. For the same molecule, the “body weights, rectal temperature, respiratory and heart rates” value ([2]; during the course of the study) was “No significant differences”, the clinical findings ([2]; entire study period, 1 and 3 mg/kg once daily) was “No clinical findings clearly attributable to the treatment” and the “haematological and clinical chemistry parameters including differential leukocyte count” value ([2]; treated groups vs concurrent controls) was “No treatment-related differences”. For the same molecule, the “mSBP change on Day 28” value ([3]; 2.0 mg/kg once daily oral, n = 165) was −24.629 ΔmmHg, the “mSBP change on Day 14” value ([3]; 2.0 mg/kg once daily oral, n = 174) was −19.219 ΔmmHg and the “Mean SABP reduction compared to baseline at respective visit” value (shortened to “Mean SABP reduction compared to baseline”) ([3]; SABP at baseline between 160-179 mmHg (171.9), Day 14, n = 98) was −16.7 ΔmmHg. The “Mean SABP reduction compared to baseline” value ([3]; SABP at baseline between 160-179 mmHg, Day 28, n = 94) was −22.9 ΔmmHg, the “Mean SABP reduction compared to baseline” value ([3]; SABP at baseline between 160-179 mmHg, Day 56, n = 87) was −24.7 ΔmmHg and the “Mean SABP reduction compared to baseline” value ([3]; SABP at baseline between 160-179 mmHg, Day 84, n = 85) was −23.2 ΔmmHg. The “Mean SABP reduction compared to baseline” value ([3]; SABP at baseline between 160-179 mmHg, Day 120, n = 81) was −23.5 ΔmmHg, the “Mean SABP reduction compared to baseline” value ([3]; SABP at baseline between 180-200 mmHg (188.4), Day 14, n = 76) was −22.3 ΔmmHg and the “Mean SABP reduction compared to baseline” value ([3]; SABP at baseline between 180-200 mmHg, Day 28, n = 71) was −26.6 ΔmmHg. The “Mean SABP reduction compared to baseline” value ([3]; SABP at baseline between 180-200 mmHg, Day 56, n = 65) was −29.6 ΔmmHg, the “Mean SABP reduction compared to baseline” value ([3]; SABP at baseline between 180-200 mmHg, Day 84, n = 63) was −30.7 ΔmmHg and the “Mean SABP reduction compared to baseline” value ([3]; SABP at baseline between 180-200 mmHg, Day 120, n = 63) was −32.9 ΔmmHg. For the same molecule, the “% of cats with Systolic Blood Pressure < 160 mmHg” value (shortened to “% of cats”) ([3]; Visit Day 14) was 46.6%, the “N of cats with Systolic Blood Pressure < 160 mmHg” value (“N of cats” for short) ([3]; Visit Day 14) was 81 and the “% of cats” value ([3]; Visit Day 56) was 70.9%. The “N of cats” value ([3]; Visit Day 56) was 105, the “% of cats” value ([3]; Visit Day 84) was 67.8% and the “N of cats” value ([3]; Visit Day 84) was 97. The “% of cats” value ([3]; Visit Day 120) was 73.1%, the “N of cats” value ([3]; Visit Day 120) was 98 and the “% of cats” value ([3]; Visit day 28) was 62.0%. The “N of cats” value ([3]; Visit day 28) was 101, the “cats with an increased appetite” value ([3]; between day −1 and 28) was 11% and the “reduction in mSBP (mean change in SBP from baseline)” value ([3]; each visit day, whole study duration of 120 days) was “greater than 20 mmHg”. The “cats with adverse events” value ([3]; efficacy phase, 115 adverse events coded for 58 cats) was 29.9%, the “cats in which it was possible to down-titrate the dose to <2 mg/kg” value ([3]; extended use phase) was 21.7% and the “Mean Systolic Blood Pressure change on Day 120 compared to baseline SBP” value ([3]; extended use phase, n = 144 cats) was −27.62 ΔmmHg. The “Mean Systolic Blood Pressure change on Day 84 compared to baseline SBP” value ([3]; extended use phase, n = 148 cats) was −26.50 ΔmmHg, the “Mean Systolic Blood Pressure change on Day 56 compared to baseline SBP” value ([3]; extended use phase, n = 152 cats) was −26.94 ΔmmHg and the “changes in a physical or clinical pathology parameter” value ([3]; following 120 days of treatment) was “no clinically relevant changes”. For the same molecule, the “mean body weight, mean heart rate, respiratory rate, and rectal temperature” value ([3]; following 120 days treatment) was “no clinically significant change” and the “cats with at least one adverse event” value ([3]; second (extended use) phase, 62 cats) was 32.0%.
